{"source": "patent US12024506B2", "about": "“Compounds” (Oxford University Innovation Limited, priority 2018, dated 2024)", "assay_type_in_all_cases": "cell-based", "details_in_all_cases": "HEK293T cells, 5, 10 and 20 μM, 20 h", "key": {"[1]": {"molecular_target": "T1, KRASG12D interaction with PI3Kα, PI3Kγ, CRAF RBD, RALGDS RA (Homo sapiens, UniProt P01116, G12D)", "T1 construct": "expressed in transfected cells; host or cells: HEK293T", "assay": "BRET2 cell assay, KRAS G12D-effector interaction", "description": "(§1) The BRET ratio corresponds to the light emitted by the GFP2 acceptor constructs (515 nm±30) upon addition of Coelenterazine 400a divided by the light emitted by the RLuc8 donor constructs (410 nm±80). The normalized BRET ratio is the BRET ratio normalized to the DMSO negative and calculated as follows: (BRETcompound/BRETDMSO)×100, where BRETcompound corresponds to the BRET ratio for the compound-treated cells, BRETDMSO to the DMSO-treated cells. Each experiment was repeated at least three times. Statistical analyses were performed using a one-way ANOVA followed by Dunnett's post-tests (*P<0.05, **P<0.01, ***P<0.001, ****P<0.0001). Where error bars are presented, they correspond to mean values±SD of biological repeats (a-c).\n(§2) 650,000 HEK293T were seeded in each well of a 6 well plate. 24 hours later, cells were transfected with an appropriated BRET-based RAS biosensor (i.e. RAS-effector) using Lipofectamine 2000 transfection reagent (Thermo-Fisher). […] The final concentrations in the cells were 0, 5, 10 and 20 µM (therefore the intermediate 10× concentrations were 0, 50, 100 and 200 μM. 10 μL of 10× compounds were added in each well of the 96 well plate to 0, 5, 10 and 20 µM final concentrations (with final 0.2% DMSO each). Quadruplicates were performed for each point. Cells were left for an additional 20 hours at 37° C. before the BRET2 signal reading directly after addition of Coelenterazine 400a substrate (10 µM final) to cells (Cayman Chemicals, cat #16157). BRET2 reading was carried out on an Envision instrument (2103 Multilabel Reader, PerkinElmer) with the BRET2 Dual Emission optical module (515 nm±30 and 410 nm±80; PerkinElmer).\n(§3) The ability of Example compound 56 to inhibit RAS-effector PPI using the above cell-based RAS-effector BRET2 assay was investigated. […] We determined the effect of compound 56 (labelled Abd-7) on the interaction of KRAS^G12D and with PI3Kα and PI3Kγ, CRAF RAS-binding domain (RBD) and RALGDS RAS-associating domain (RA) compared with the low affinity Reference Compound Abd-2 FIG. 1a). […]"}, "[2]": {"molecular_target": "T2, HRASG12V interaction with PI3K, CRAF, RALGDS (Homo sapiens, UniProt P01112, G12V)", "T2 construct": "expressed in transfected cells; host or cells: HEK293T", "assay": "BRET2 cell assay, HRAS G12V-effector interaction", "description": "as §1\n(§4) HEK293T cells were transfected 24 hr with plasmids expressing the NRAS Q61H […] and HRAS G12V (B, D) biosensors together with the indicated RBDs of PI3K, CRAF and RALGDS (A, B) or full-length CRAF. […]\nas §2, with “plate.” for “plate. 24 hours later, cells were transfected with an appropriated BRET-based RAS biosensor (i.e. RAS-effector) using Lipofectamine 2000 transfection reagent (Thermo-Fisher).”\nas §3"}, "[3]": {"molecular_target": "T3, NRASQ61H interaction with PI3K, CRAF, RALGDS (Homo sapiens, UniProt P01111, Q61H)", "T3 construct": "expressed in transfected cells; host or cells: HEK293T", "assay": "BRET2 cell assay, NRAS Q61H-effector interaction", "description": "as §1, §4\nas §2, with “plate.” for “plate. 24 hours later, cells were transfected with an appropriated BRET-based RAS biosensor (i.e. RAS-effector) using Lipofectamine 2000 transfection reagent (Thermo-Fisher).”\nas §3"}}, "note": "Entries after “also recorded” stand apart in the source; their conditions may differ."}
{"smiles": "O=C(NCC1COc2ccccc2O1)c1ccco1", "note": "(stereo not drawn) [Abd-2, reference compound]", "values": [{"measurement": "Effect on BRET signal, KRAS G12D/effector interactions", "setting": "[1]", "result": "no effect on the BRET signal; also recorded: not with the Abd-2"}, {"measurement": "Effect on BRET signal, HRAS G12V/effector interactions", "setting": "[2]", "result": "does not interfere with the BRET signal"}, {"measurement": "Effect on BRET signal, NRAS Q61H/effector interactions", "setting": "[3]", "result": "does not interfere with the BRET signal"}]}
